In ChEMBL document CHEMBL5620353, “Novel antifungal triazoles with alkynyl-methoxyl side chains: Design, synthesis, and biological activity evaluation” (Eur J Med Chem, 2023):
≈ marks a conversion by molar mass, not a printed value.

What was measured:
Cryptococcus neoformans = assay: Antifungal activity against Cryptococcus neoformans 32,609 assessed as inhibition of fungal growth incubated for 72 hrs by microbroth dilution method; type: functional
[1] = Selectivity index, ratio of IC50 for HUVEC cells to MIC for Candida glabrata 537; type: toxicity; conditions: human, HUVEC cells versus Candida glabrata 537; read-out: Selectivity Index
Candida albicans [2] = assay: Inhibition of biofilm formation in Candida albicans SC5314 at 64 ug/ml incubated for 24 hrs by XTT reduction assay relative to control; type: functional
Saccharomyces cerevisiae [3] = assay: Antifungal activity against recombinant Saccharomyces cerevisiae Y2721 overexpressing CpErg11 CpCpr assessed as inhibition of fungal growth incubated for 48 hrs by microbroth dilution method; type: functional
Aspergillus fumigatus = assay: Antifungal activity against Aspergillus fumigatus 7544 assessed as inhibition of fungal growth incubated for 72 hrs by microbroth dilution method; type: functional
[Candida] auris [4] = Antifungal activity against fluconazole-resistant Candida auris 919 assessed as inhibition of fungal growth incubated for 48 hrs by microbroth dilution method; type: functional; conditions: Candidozyma auris
[5] = Hemolytic activity in rabbit RBC at 64 ug/ml incubated for 1 hr by absorbance based analysis; type: toxicity, cell-based, Oryctolagus cuniculus, Erythrocyte; conditions: rabbit red blood cells, at 64 µg/mL, read-out: Activity
Saccharomyces cerevisiae [6] = assay: Antifungal activity against recombinant Saccharomyces cerevisiae Y2301 overexpressing ScErg11 Y140F assessed as inhibition of fungal growth incubated for 48 hrs by microbroth dilution method; type: functional
[7] = Metabolic stability in human liver microsomes assessed as intrinsic clearance at 1 uM preincubated for 10 mins followed by NADPH addition and measured upto 60 mins by LC-MS/MS analysis; type: ADME, Microsome; conditions: time < 70 min, read-out: CLH
Nakaseomyces glabratus [8] = assay: Antifungal activity against Candida glabrata 537 assessed as inhibition of fungal growth incubated for 48 hrs by microbroth dilution method; type: functional
Saccharomyces cerevisiae [9] = assay: Antifungal activity against recombinant Saccharomyces cerevisiae Y2411 overexpressing ScErg11 assessed as inhibition of fungal growth incubated for 48 hrs by microbroth dilution method; type: functional
Saccharomyces cerevisiae [10] = assay: Antifungal activity against recombinant Saccharomyces cerevisiae Y2462 overexpressing ScErg11 ScNcp1 assessed as inhibition of fungal growth incubated for 48 hrs by microbroth dilution method; type: functional
Candida albicans [11] = assay: Antifungal activity against Candida albicans SC5314 assessed as inhibition of fungal growth at 0.0625 ug/ml measured after 12 hrs by optical density based method; type: functional
Saccharomyces cerevisiae [12] = assay: Antifungal activity against recombinant Saccharomyces cerevisiae Y2459 overexpressing CaErg11 CaCpr assessed as inhibition of fungal growth incubated for 48 hrs by microbroth dilution method; type: functional
Candida albicans [13] = assay: Antifungal activity against Candida albicans SC5314 assessed as reduction in fungal growth measured after 6 to 24 hrs by optical density based method; type: functional, organism-based; conditions: dose 0.0625-16 µg/ml, time 6-24 hrs
Saccharomyces cerevisiae [14] = assay: Antifungal activity against recombinant Saccharomyces cerevisiae Y2716 overexpressing CpErg11 Y132F CpCpr assessed as inhibition of fungal growth incubated for 48 hrs by microbroth dilution method; type: functional
Candida parapsilosis = assay: Antifungal activity against Candida parapsilosis 22019 assessed as inhibition of fungal growth incubated for 48 hrs by microbroth dilution method; type: functional; conditions: Lodderomyces parapsilosis
[15] = Cytotoxicity against HUVEC cells assessed as cell survival at <16 ug/ml incubated for 24 hrs by CCK-8 assay relative to control; type: toxicity, cell-based; conditions: human, dose < 16 µg/ml, read-out: Survival
[Candida] auris [16] = Antifungal activity against fluconazole-resistant Candida auris 891 assessed as inhibition of fungal growth incubated for 48 hrs by microbroth dilution method; type: functional; conditions: Candidozyma auris
Saccharomyces cerevisiae [17] = assay: Antifungal activity against recombinant Saccharomyces cerevisiae Y525 overexpressing CaMdr1 assessed as inhibition of fungal growth incubated for 48 hrs by microbroth dilution method; type: functional
[18] = Selectivity index, ratio of IC50 for HUVEC cells to MIC for Candida albicans SC5314; type: toxicity; conditions: human, HUVEC cells versus Candida albicans SC5314; read-out: Selectivity Index
Cytochrome P450 1A2 = target: T1, Cytochrome P450 1A2 (Homo sapiens, UniProt P05177); assay: Inhibition of human CYP1A2 using phenacetin as substrate prewarmed for 10 mins followed by NADPH addition and measured after 10 mins by LC-MS/MS analysis; type: ADME
T1 sequence (P05177 whole entry): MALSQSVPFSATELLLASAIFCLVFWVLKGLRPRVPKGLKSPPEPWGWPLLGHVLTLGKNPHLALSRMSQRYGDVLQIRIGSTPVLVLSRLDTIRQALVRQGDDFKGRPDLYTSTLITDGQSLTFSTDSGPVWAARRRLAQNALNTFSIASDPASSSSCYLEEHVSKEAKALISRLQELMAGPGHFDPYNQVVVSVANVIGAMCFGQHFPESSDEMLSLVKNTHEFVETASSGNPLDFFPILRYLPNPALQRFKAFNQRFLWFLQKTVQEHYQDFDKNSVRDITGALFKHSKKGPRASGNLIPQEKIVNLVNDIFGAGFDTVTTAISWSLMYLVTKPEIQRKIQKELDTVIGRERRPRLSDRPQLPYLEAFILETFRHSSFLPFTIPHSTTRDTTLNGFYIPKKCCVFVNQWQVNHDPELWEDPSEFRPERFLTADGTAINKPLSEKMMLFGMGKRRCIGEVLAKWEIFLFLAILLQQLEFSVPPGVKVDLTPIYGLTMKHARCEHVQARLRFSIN

Candida tropicalis = assay: Antifungal activity against Candida tropicalis 8915 assessed as inhibition of fungal growth incubated for 48 hrs by microbroth dilution method; type: functional
Pichia kudriavzevii = assay: Antifungal activity against Candida krusei 4996 assessed as inhibition of fungal growth incubated for 48 hrs by microbroth dilution method; type: functional
Saccharomyces cerevisiae [19] = assay: Antifungal activity against recombinant Saccharomyces cerevisiae Y570 overexpressing CaCdr1 assessed as inhibition of fungal growth incubated for 48 hrs by microbroth dilution method; type: functional
Candida albicans [20] = assay: Antifungal activity against Candida albicans SC5314 assessed as inhibition of fungal growth incubated for 48 hrs by microbroth dilution method; type: functional
Saccharomyces cerevisiae [21] = assay: Resistance index, ratio of MIC for recombinant Saccharomyces cerevisiae Y525 overexpressing CaMdr1 to MIC for recombinant Saccharomyces cerevisiae Y2411 overexpressing ScErg11; type: functional
[22] = Cytotoxicity against HUVEC cells assessed as cell survival at 128 ug/ml incubated for 24 hrs by CCK-8 assay relative to control; type: toxicity, cell-based; conditions: human, at 128 µg/mL, read-out: Survival
Saccharomyces cerevisiae [23] = assay: Antifungal activity against recombinant Saccharomyces cerevisiae Y2374 overexpressing CgErg11 assessed as inhibition of fungal growth incubated for 48 hrs by microbroth dilution method; type: functional
Candida albicans [24] = assay: Antibiofilm activity against Candida albicans SC5314 preformed biofilms incubated for 24 hrs by XTT reduction assay; type: functional, organism-based; conditions: dose 0.25-64 µg/ml
Cytochrome P450 2C19 = Cytochrome P450 2C19 (Homo sapiens, UniProt P33261); assay: Inhibition of human CYP2C19 using mephenytoin as substrate prewarmed for 10 mins followed by NADPH addition and measured after 10 mins by LC-MS/MS analysis; type: ADME
Sequence of Cytochrome P450 2C19 (P33261 whole entry): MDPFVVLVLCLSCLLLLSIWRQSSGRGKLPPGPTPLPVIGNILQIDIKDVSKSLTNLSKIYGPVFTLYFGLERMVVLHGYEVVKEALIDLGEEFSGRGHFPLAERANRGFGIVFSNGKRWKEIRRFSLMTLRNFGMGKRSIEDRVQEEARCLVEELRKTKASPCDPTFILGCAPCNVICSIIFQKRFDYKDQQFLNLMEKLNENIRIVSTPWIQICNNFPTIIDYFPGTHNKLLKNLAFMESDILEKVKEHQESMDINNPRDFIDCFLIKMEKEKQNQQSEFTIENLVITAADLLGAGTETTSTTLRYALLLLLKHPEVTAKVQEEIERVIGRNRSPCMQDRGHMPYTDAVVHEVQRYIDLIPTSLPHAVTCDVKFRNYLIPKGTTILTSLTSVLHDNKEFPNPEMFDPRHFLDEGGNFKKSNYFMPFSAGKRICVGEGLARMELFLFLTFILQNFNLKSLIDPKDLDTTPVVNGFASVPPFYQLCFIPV

Nakaseomyces glabratus [25] = assay: Potency index, ratio of fluconazole MIC to test compound MIC for antifungal activity against Candida glabrata 537 assessed as inhibition of fungal growth incubated for 48 hrs by microbroth dilution method; type: functional

SMILES	MIC (Cryptococcus neoformans)	selectivity ratio [1]	inhibition at 64 µg/mL (Candida albicans [2])	MIC (Saccharomyces cerevisiae [3])	MIC (Aspergillus fumigatus)	MIC ([Candida] auris [4])	hemolysis at 1 h, 64 ug/ml [5]	MIC (Saccharomyces cerevisiae [6])	microsomal CLint at 1 µM [7]	MIC (Nakaseomyces glabratus [8])	MIC (Saccharomyces cerevisiae [9])	MIC (Saccharomyces cerevisiae [10])	inhibition at 0.0625 µg/mL (Candida albicans [11])	MIC (Saccharomyces cerevisiae [12])	Activity (Candida albicans [13])	MIC (Saccharomyces cerevisiae [14])	MIC (Candida parapsilosis)	viability at 24 h [15]	MIC ([Candida] auris [16])	MIC (Saccharomyces cerevisiae [17])	other results
C[C@@H](OCC#Cc1ccc(F)cc1F)[C@](O)(Cn1cncn1)c1ccc(F)cc1F	0.5 µg/mL (≈ 1.19 µM)	> 500	37%	0.063 µg/mL	4 µg/mL (≈ 9.54 µM)	16 µg/mL (≈ 38.2 µM)	1.32%	0.063 µg/mL	26.2 µL/min/mg	≤ 0.125 µg/mL	8 ng/mL	0.063 µg/mL	100%	0.016 µg/mL	Dose-Dependent Effect	0.063 µg/mL	0.5 µg/mL (≈ 1.19 µM)	> 80%	32 µg/mL (≈ 76.3 µM)	0.25 µg/mL	selectivity ratio [18]: > 500; IC50 (Cytochrome P450 1A2): 50.7 µM; MIC (Candida tropicalis): 32 µg/mL (≈ 76.3 µM); MIC (Pichia kudriavzevii): 4 µg/mL (≈ 9.54 µM); MIC (Saccharomyces cerevisiae [19]): 32 µg/mL; MIC (Candida albicans [20]): ≤ 0.125 µg/mL; Ratio (Saccharomyces cerevisiae [21]): >=16; viability at 24 h, 128 ug/ml [22]: 36%; MIC (Saccharomyces cerevisiae [23]): 0.063 µg/mL; Activity (Candida albicans [24]): Dose-Dependent Effect; IC50 (Cytochrome P450 2C19): 73 nM; Ratio (Nakaseomyces glabratus [25]): >=8
C[C@@H](OCC#Cc1ccncc1)[C@](O)(Cn1cncn1)c1ccc(F)cc1F	≤ 0.125 µg/mL	> 500	43.4%	0.063 µg/mL	4 µg/mL (≈ 10.4 µM)	16 µg/mL (≈ 41.6 µM)	1.36%	0.063 µg/mL	188 µL/min/mg	≤ 0.125 µg/mL	8 ng/mL	0.063 µg/mL	100%	0.016 µg/mL	Dose-Dependent Effect	0.063 µg/mL	≤ 0.125 µg/mL	> 80%	32 µg/mL (≈ 83.2 µM)	0.25 µg/mL	selectivity ratio [18]: > 500; IC50 (Cytochrome P450 1A2): 31.1 µM; MIC (Candida tropicalis): 32 µg/mL (≈ 83.2 µM); MIC (Pichia kudriavzevii): 4 µg/mL (≈ 10.4 µM); MIC (Saccharomyces cerevisiae [19]): 4 µg/mL; MIC (Candida albicans [20]): ≤ 0.125 µg/mL; Ratio (Saccharomyces cerevisiae [21]): >=16; viability at 24 h, 128 ug/ml [22]: 28.7%; MIC (Saccharomyces cerevisiae [23]): 0.063 µg/mL; Activity (Candida albicans [24]): Dose-Dependent Effect; IC50 (Cytochrome P450 2C19): 394 nM; Ratio (Nakaseomyces glabratus [25]): >=8
C[C@@H](OCC#Cc1ccc(C#N)cc1)[C@](O)(Cn1cncn1)c1ccc(F)cc1F	0.5 µg/mL (≈ 1.22 µM)	> 500	43.9%	0.063 µg/mL	1 µg/mL (≈ 2.45 µM)	16 µg/mL (≈ 39.2 µM)	1.22%	0.063 µg/mL	25.6 µL/min/mg	≤ 0.125 µg/mL	8 ng/mL	0.031 µg/mL	100%	0.016 µg/mL	Dose-Dependent Effect	0.063 µg/mL	1 µg/mL (≈ 2.45 µM)	> 80%	16 µg/mL (≈ 39.2 µM)	0.25 µg/mL	selectivity ratio [18]: > 500; IC50 (Cytochrome P450 1A2): 42.6 µM; MIC (Candida tropicalis): ≤ 0.125 µg/mL; MIC (Pichia kudriavzevii): 8 µg/mL (≈ 19.6 µM); MIC (Saccharomyces cerevisiae [19]): 16 µg/mL; MIC (Candida albicans [20]): ≤ 0.125 µg/mL; Ratio (Saccharomyces cerevisiae [21]): >=16; viability at 24 h, 128 ug/ml [22]: 34.9%; MIC (Saccharomyces cerevisiae [23]): 0.031 µg/mL; Activity (Candida albicans [24]): Dose-Dependent Effect; IC50 (Cytochrome P450 2C19): 566 nM; Ratio (Nakaseomyces glabratus [25]): >=8
